Experimental data reported in US6399646B1 (priority 2001, dated 2002).
Read-outs that look alike come from different tables or passages of the source. Marks after values point to notes of the source that are not given here.

Assays:
[1] = system: Ralstonia; conditions: solution added to Ralstonia culture liquid in physiological brine; cited from earlier work
[2] = system: Ralstonia solanacearum; format: in vivo; conditions: for Bacterial wilt severity: foliar application, tomato plants, scale 0=healthy to 4=dead plant
[3] = system: Ralstonia; conditions: tomato plants transferred into hydroponic solutions inoculated with Ralstonia and previously treated with 3-IBA; more than 60% wilt in its absence; cited from earlier work

| SMILES | Ralstonia growth (turbidity of culture liquid) [1] | Bacterial wilt severity ([2]; higher concentration (2.0 lbs active ingredient per 100 gallons), rated 9/26/2000, six replications) | Bacterial wilt severity ([2]; higher concentration (2.0 lbs active ingredient per 100 gallons), rated 9/27/2000) | Bacterial wilt severity ([2]; higher concentration (2.0 lbs active ingredient per 100 gallons), rated 9/30/2000) | Bacterial wilt severity ([2]; higher concentration (2.0 lbs active ingredient per 100 gallons), rated 10/04/2000) | Bacterial wilt severity ([2]; higher concentration (2.0 lbs active ingredient per 100 gallons), rated 10/26/2000) | Bacterial wilt severity ([2]; low concentration (0.25 lbs active ingredient per 100 gallons), rated 9/26/2000, six replications) | Bacterial wilt severity ([2]; low concentration (0.25 lbs active ingredient per 100 gallons), rated 9/27/2000) | Bacterial wilt severity ([2]; low concentration (0.25 lbs active ingredient per 100 gallons), rated 9/30/2000) | Bacterial wilt severity ([2]; low concentration (0.25 lbs active ingredient per 100 gallons), rated 10/04/2000) | Bacterial wilt severity ([2]; low concentration (0.25 lbs active ingredient per 100 gallons), rated 10/26/2000) | Plants revived and recovering at the end of the trial ([2]; higher concentration, foliar treatment prior to inoculation, of 6 tomato plants) [plants] | State of the 6 treated plants by the end of the trial ([2]; low concentration, foliar treatment prior to inoculation, 6 tomato plants) | Plants slightly wilted [3] |
| --- | --- | --- | --- | --- | --- | --- | --- | --- | --- | --- | --- | --- | --- | --- |
| C[C@@H](CC(=O)O)c1c[nH]c2ccccc12 [(S)-3-(3-indolyl) butanoic acid] | suppression of Ralstonia growth |  |  |  |  |  |  |  |  |  |  |  |  |  |
| CC(CC(=O)O)c1c[nH]c2ccccc12 (centres unmarked) [3-IBA, 3-(3-indolyl) butanoic acid] |  | 2.3 | 3.0 | 2.8 | 3.3 | 1.5*** | 2.5 | 3.0 | 4.0 | 3.8 | 4.0** | 3 | all dead | less than 10% |
